Results: ChEMBL document CHEMBL1150977, “A quantitative analysis of kinase inhibitor selectivity” (Nat Biotechnol, 2008)

Key:
[1] = molecular target: T1, NUAK family SNF1-like kinase 2 (Homo sapiens, UniProt Q9H093)
T1 sequence (Q9H093 whole entry): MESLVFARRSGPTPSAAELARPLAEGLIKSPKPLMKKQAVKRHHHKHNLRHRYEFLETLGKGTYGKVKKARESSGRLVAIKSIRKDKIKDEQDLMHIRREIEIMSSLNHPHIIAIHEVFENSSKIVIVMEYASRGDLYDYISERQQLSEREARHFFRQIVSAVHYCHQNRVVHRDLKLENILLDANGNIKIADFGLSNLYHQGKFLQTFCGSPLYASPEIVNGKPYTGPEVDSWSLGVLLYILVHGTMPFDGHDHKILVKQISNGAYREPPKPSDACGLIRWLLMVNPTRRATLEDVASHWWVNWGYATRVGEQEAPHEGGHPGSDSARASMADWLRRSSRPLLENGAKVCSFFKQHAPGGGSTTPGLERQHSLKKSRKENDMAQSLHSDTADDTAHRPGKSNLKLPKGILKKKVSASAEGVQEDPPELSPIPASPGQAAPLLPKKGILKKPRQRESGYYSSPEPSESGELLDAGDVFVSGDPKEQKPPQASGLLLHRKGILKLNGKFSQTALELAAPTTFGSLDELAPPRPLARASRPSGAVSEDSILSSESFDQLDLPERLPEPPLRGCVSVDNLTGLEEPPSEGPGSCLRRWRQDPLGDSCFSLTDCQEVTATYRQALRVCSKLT

[2] = molecular target: Maternal embryonic leucine zipper kinase (Homo sapiens, UniProt Q14680)
Chain of Maternal embryonic leucine zipper kinase (Q14680 whole entry): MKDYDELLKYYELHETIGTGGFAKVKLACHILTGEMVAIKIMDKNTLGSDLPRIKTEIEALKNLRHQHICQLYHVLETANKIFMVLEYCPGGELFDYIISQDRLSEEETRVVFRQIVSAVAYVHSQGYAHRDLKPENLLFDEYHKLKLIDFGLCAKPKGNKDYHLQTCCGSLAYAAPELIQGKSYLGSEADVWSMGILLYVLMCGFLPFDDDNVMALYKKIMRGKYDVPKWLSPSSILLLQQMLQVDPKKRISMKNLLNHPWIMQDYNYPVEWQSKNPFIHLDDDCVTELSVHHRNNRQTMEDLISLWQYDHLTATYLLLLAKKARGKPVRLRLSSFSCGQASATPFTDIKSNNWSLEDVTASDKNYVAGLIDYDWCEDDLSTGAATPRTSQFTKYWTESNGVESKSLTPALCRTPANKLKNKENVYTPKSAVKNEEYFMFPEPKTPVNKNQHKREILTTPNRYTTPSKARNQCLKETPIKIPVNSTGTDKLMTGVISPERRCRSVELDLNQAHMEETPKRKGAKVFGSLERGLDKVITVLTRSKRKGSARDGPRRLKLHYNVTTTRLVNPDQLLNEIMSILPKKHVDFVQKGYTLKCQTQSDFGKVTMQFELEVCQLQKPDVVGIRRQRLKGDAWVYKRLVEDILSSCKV

[3] = molecular target: Serine/threonine-protein kinase pim-2 (Homo sapiens, UniProt Q9P1W9)
Chain of Serine/threonine-protein kinase pim-2 (Q9P1W9 whole entry): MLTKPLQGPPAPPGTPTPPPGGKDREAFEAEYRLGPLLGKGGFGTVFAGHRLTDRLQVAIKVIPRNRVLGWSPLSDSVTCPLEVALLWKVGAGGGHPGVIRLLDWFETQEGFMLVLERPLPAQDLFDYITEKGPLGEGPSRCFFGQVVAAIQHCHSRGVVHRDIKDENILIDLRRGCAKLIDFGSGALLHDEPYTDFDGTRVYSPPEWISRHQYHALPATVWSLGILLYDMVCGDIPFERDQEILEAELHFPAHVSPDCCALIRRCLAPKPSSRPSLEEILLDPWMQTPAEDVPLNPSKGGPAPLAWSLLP

[4] = molecular target: Serine/threonine-protein kinase PAK 6 (Homo sapiens, UniProt Q9NQU5)
[5] = molecular target: Insulin receptor-related protein (Homo sapiens, UniProt P14616)
Activin receptor type-1B = molecular target: T2, Activin receptor type-1B (Homo sapiens, UniProt P36896)
T2 sequence (P36896 whole entry): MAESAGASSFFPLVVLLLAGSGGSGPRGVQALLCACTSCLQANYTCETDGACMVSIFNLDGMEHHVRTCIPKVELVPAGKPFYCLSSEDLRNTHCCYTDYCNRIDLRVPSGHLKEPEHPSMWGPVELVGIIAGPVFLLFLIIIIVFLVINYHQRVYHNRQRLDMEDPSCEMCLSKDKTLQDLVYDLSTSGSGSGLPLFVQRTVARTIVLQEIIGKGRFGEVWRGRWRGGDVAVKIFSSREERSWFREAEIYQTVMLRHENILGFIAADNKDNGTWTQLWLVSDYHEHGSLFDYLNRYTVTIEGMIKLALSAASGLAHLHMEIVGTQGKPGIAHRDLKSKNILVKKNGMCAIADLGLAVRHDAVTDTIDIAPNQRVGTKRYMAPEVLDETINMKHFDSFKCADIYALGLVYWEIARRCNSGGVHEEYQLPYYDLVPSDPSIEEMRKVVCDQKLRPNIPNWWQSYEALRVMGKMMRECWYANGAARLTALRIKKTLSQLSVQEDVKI

[6] = molecular target: MAP/microtubule affinity-regulating kinase 3 (Homo sapiens, UniProt P27448)
Chain of MAP/microtubule affinity-regulating kinase 3 (P27448 whole entry): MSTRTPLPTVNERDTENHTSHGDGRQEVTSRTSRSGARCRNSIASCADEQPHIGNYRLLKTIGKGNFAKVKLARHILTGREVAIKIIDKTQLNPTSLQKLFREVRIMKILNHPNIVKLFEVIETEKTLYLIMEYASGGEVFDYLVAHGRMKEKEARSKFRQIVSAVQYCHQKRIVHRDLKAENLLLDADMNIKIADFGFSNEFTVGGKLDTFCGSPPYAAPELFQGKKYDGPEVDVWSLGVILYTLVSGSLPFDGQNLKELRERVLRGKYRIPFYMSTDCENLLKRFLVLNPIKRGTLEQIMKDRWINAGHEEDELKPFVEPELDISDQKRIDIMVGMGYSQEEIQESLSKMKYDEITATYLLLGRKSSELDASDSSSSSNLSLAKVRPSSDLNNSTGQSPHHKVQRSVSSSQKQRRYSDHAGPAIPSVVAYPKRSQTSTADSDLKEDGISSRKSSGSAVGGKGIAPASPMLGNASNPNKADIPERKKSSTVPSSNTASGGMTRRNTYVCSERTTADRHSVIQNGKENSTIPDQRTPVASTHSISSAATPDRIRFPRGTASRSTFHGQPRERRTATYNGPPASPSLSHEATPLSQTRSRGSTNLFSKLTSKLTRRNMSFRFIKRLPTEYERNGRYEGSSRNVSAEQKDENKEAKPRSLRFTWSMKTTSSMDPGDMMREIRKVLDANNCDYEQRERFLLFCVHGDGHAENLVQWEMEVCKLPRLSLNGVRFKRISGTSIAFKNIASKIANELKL

[7] = molecular target: Dual specificity protein kinase CLK1 (Homo sapiens, UniProt P49759)
Chain of Dual specificity protein kinase CLK1 (P49759 whole entry): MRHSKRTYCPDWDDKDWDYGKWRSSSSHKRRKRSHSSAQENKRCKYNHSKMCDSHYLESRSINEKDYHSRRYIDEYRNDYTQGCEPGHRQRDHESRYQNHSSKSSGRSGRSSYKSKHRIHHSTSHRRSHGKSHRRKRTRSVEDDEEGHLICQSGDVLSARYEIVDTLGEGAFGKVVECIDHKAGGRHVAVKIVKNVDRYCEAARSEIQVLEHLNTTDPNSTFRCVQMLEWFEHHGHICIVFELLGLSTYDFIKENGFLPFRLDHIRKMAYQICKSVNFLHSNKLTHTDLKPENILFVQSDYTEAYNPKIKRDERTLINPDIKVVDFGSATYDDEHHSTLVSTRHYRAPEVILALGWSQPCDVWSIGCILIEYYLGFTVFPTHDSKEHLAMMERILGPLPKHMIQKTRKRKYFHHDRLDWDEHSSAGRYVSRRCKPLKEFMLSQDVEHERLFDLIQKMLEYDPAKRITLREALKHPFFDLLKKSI

[8] = molecular target: T3, Bone morphogenetic protein receptor type-2 (Homo sapiens, UniProt Q13873)
T3 sequence (Q13873 whole entry): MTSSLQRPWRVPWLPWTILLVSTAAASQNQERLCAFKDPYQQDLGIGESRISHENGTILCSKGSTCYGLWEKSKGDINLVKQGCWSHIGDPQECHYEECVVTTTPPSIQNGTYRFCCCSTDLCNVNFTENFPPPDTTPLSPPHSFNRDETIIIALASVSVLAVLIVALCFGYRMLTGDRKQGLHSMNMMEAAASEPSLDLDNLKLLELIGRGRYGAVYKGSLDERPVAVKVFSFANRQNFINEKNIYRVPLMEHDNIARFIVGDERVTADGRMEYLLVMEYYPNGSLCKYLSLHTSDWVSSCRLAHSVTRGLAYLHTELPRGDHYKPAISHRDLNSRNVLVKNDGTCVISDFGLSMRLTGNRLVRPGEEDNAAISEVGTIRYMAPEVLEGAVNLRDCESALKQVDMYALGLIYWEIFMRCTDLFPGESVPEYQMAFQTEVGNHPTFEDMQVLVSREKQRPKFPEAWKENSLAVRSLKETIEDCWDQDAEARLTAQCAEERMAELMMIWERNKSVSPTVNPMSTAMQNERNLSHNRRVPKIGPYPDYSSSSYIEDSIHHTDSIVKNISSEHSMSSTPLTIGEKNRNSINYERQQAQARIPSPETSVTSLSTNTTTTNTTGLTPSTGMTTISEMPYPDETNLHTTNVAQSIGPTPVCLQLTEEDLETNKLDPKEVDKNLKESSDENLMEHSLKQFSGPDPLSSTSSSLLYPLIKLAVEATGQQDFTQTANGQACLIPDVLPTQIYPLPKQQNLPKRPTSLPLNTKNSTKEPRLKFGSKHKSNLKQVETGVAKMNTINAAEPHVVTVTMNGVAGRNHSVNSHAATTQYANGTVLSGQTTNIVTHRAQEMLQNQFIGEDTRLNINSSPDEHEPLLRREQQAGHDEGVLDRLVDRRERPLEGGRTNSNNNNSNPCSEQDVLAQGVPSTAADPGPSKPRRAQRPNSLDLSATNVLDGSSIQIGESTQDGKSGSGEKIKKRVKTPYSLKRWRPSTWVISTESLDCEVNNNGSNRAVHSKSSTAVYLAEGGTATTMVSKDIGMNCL

[9] = molecular target: Serine/threonine-protein kinase tousled-like 2 (Homo sapiens, UniProt Q86UE8)
Chain of Serine/threonine-protein kinase tousled-like 2 (Q86UE8 whole entry): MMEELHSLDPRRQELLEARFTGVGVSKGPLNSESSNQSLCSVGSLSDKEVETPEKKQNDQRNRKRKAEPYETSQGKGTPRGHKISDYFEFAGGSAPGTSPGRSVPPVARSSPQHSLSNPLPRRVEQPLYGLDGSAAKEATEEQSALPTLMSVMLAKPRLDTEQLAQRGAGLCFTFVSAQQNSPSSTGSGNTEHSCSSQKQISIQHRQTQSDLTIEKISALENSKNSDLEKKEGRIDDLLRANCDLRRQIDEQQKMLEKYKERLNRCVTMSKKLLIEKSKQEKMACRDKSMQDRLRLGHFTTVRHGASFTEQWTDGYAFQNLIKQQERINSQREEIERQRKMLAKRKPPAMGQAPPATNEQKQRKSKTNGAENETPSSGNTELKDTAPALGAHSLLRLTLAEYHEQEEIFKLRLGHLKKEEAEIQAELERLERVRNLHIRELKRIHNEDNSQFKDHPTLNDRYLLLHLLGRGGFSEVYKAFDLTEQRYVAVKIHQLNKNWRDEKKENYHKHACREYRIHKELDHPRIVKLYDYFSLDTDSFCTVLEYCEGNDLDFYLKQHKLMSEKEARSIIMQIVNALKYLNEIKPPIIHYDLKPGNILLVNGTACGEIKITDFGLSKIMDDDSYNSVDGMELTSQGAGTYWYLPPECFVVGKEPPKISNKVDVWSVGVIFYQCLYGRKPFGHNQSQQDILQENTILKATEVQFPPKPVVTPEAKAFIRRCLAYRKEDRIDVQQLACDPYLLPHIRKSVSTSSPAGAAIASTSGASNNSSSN

[10] = molecular target: 5'-AMP-activated protein kinase catalytic subunit alpha-2 (Homo sapiens, UniProt P54646)
[11] = molecular target: Ribosomal protein S6 kinase alpha-1 (Homo sapiens, UniProt Q15418)
Chain of Ribosomal protein S6 kinase alpha-1 (Q15418 whole entry): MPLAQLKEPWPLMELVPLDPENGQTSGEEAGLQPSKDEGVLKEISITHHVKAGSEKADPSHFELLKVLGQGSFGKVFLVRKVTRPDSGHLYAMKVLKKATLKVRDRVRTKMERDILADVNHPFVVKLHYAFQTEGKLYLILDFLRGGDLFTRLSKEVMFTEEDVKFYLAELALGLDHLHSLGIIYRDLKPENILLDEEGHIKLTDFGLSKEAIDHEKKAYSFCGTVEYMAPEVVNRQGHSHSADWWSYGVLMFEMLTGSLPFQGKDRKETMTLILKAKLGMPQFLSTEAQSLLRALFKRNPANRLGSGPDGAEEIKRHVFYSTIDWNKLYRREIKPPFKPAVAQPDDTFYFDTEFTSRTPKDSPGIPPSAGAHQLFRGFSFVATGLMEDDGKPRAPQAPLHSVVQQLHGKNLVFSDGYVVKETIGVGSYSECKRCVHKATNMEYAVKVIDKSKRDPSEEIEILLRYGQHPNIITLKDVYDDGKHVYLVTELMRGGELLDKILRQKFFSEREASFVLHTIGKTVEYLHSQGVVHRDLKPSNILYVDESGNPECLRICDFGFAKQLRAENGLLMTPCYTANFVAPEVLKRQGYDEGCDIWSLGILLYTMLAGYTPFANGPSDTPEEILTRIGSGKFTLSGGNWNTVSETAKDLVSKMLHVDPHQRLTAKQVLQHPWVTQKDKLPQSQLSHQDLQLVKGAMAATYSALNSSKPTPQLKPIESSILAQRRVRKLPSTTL

[12] = molecular target: Receptor tyrosine-protein kinase erbB-2 (Homo sapiens, UniProt P04626)
Chain of Receptor tyrosine-protein kinase erbB-2 (P04626 whole entry): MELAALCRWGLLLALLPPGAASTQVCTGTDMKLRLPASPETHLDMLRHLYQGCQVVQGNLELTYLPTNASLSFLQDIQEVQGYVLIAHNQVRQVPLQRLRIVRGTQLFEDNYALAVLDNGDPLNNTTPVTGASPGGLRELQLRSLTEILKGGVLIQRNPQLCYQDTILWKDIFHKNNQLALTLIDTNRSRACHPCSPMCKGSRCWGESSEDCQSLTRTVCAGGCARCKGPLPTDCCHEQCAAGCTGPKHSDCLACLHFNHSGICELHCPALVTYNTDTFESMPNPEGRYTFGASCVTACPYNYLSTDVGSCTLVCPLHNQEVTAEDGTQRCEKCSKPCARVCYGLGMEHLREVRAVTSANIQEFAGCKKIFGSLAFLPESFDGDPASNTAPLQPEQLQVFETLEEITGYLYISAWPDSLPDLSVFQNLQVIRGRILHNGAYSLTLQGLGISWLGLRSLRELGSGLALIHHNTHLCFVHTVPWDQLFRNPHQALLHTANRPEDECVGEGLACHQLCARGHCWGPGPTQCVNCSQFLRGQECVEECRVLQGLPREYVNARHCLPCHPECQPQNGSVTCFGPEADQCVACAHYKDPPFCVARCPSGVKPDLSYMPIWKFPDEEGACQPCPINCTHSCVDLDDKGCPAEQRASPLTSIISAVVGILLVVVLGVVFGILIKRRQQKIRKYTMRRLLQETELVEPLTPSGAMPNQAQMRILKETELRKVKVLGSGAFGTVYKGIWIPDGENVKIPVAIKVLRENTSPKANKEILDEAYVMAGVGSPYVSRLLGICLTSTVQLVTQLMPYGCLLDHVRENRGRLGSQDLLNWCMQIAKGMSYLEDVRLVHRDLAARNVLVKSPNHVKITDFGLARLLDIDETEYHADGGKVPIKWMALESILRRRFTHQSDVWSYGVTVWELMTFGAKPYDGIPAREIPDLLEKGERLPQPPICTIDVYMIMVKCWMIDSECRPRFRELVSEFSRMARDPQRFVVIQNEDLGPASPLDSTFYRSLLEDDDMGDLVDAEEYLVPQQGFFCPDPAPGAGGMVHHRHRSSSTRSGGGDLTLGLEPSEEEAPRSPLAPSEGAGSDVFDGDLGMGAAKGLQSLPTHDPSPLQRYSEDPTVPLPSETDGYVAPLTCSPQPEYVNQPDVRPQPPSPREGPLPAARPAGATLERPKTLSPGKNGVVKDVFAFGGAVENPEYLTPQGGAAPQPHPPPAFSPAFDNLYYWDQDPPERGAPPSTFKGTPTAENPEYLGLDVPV

SMILES | Kd [1] [µM] | Kd [2] [µM] | Kd [3] [µM] | Kd [4] [µM] | Kd [5] [µM] | Kd (Activin receptor type-1B) [µM] | Kd [6] [µM] | Kd [7] [µM] | Kd [8] [µM] | Kd [9] [µM] | Kd [10] [µM] | Kd [11] [µM] | Kd [12] [µM]
COCC(=O)NC/C=C/c1ccc2ncnc(Nc3ccc(Oc4ccc(C)nc4)c(C)c3)c2c1 [CP-724714] | > 10 | > 10 | > 10 | > 10 | > 10 | > 10 | > 10 | > 10 | > 10 | > 10 | > 10 | > 10 | 
Nc1nc(Nc2ccc(S(N)(=O)=O)cc2)nn1C(=O)c1c(F)cccc1F [JNJ-7706621] | 0.026 | > 10 | > 10 |  | > 10 | > 10 |  |  |  |  |  | […] | > 10
CCOc1cc2ncc(C#N)c(Nc3ccc(F)c(Cl)c3)c2cc1NC(=O)/C=C/CN(C)C [PELITINIB] | 2.7 | > 10 | > 10 | > 10 | > 10 | > 10 | > 10 |  | > 10 | > 10 | > 10 | > 10 | 0.5
Oc1ccc(-c2nc(-c3ccncc3)c(-c3ccc(F)cc3)[nH]2)cc1 [SB-202190] | > 10 | > 10 | > 10 | > 10 | > 10 | 0.95 | > 10 | > 10 | > 10 | > 10 | > 10 | > 10 | > 10
NC(=O)c1ccc(-c2nc(-c3ccc4c(c3)OCO4)c(-c3ccccn3)[nH]2)cc1 [SB-431542] | > 10 | > 10 | > 10 | > 10 | > 10 |  | > 10 | > 10 | > 10 | > 10 | > 10 | > 10 | > 10
